These results are taken from publication PMC10465125 (eLife, 2023).

Data set [1] relates to SARS-CoV-2 wild-type Spike Vpps. Set-up: EC50 (inhibition of SARS-CoV-2 Vpp infection by 50%): unit not given beside the values.
The subject of the next data set is Mpro of SARS-CoV-2. The note with it: in vitro analysis; ref Zhu and Xie, 2020; cited from earlier work.
Data set [2] concerns wild-type SARS-CoV-2 Spike Vpps. The data set can be described thus: microbe, parasite or virus in culture. The settings on record: Severe acute respiratory syndrome coronavirus 2, 293T/ACE2, read-out: EC50 (inhibition of SARS-CoV-2 Vpp infection by 50%).
The target of the next data set is T1, SARS-CoV-2 Mpro (Severe acute respiratory syndrome coronavirus 2, UniProt P0DTD1).
T1 construct: the main protease (M^pro/3CL^pro), a chymotrypsin-like protease
Format: biochemical.

Another data set has as its target T2, human TMPRSS2 (Homo sapiens, UniProt O15393).
T2 construct: Flag; host or cells: 293T
Nature of the data set: Cell-based TMPRSS2 enzyme activity assay (293T-TMPRSS2 cells, Boc-QAR-AMC).

Data set [3] has as its system wild-type SARS-CoV-2 Spike Vpps. Nature of the data set: microbe, parasite or virus in culture. The note with it: Severe acute respiratory syndrome coronavirus 2, NCI-H460, read-out: EC50 (inhibition of SARS-CoV-2 Vpp infection by 50%).
Data set [4] in a line: Cytotoxicity assay (MTT), VeroE6. In kind it is cell-based. The note with it: African green monkey, tested concentrations given in μg/ml, read-out: CC50 (median cytotoxic concentration). On the procedure:
(§1) The human embryonic kidney cells 293T stably expressing recombinant human ACE2 (293T-ACE2) were maintained in DMEM containing 10% FBS, 1% P/S, and […] hygromycin. The NCI-H460 cell line (human non-small cell lung cancer cells) was preserved in Modified Eagle’s Medium (MEM, Gibco, USA) supplemented with 10% FBS and 1% P/S. The VeroE6 cell line (African green monkey kidney cells) was grown in Dulbecco’s Modified Eagle’s Medium (DMEM, Gibco) supplemented with 10% fetal bovine serum (FBS, Gibco), 1× GlutaMAX (Gibco), and 1% penicillin/streptomycin (P/S, Hyclone, USA). All these cells were cultured at 37°C and 5% CO2. All cell lines are checked annually for mycoplasma contamination, and human cell lines were authenticated through STR profiling.
(§2) […]. The medium was removed, and viable cells were detected with MTT assay (Cyrusbioscience, Taiwan), which was read by absorbance at 570 nm by an ELISA reader. All experiments were performed independently in triplicates and repeated three times.

Data set [5] relates to SARS-CoV-2 wild-type Spike Vpps. Nature of the data set: microbe, parasite or virus in culture. The settings on record: Severe acute respiratory syndrome coronavirus 2, Vero C1008, read-out: EC50 (inhibition of SARS-CoV-2 Vpp infection by 50%).
Data set [6] can be described thus: Cytotoxicity assay (MTT), NCI-H460. Format: cell-based. The settings on record: human, tested concentrations given in μg/ml, read-out: CC50 (median cytotoxic concentration). On the procedure: as §1, §2
Data set [7] in a line: Cytotoxicity assay (MTT), 293T-ACE2. In kind it is cell-based. The note with it: human, tested concentrations given in μg/ml, read-out: CC50 (median cytotoxic concentration). On the procedure: as §1, §2
Data set [8] has as its target SARS-CoV-2 Spike RBD / human ACE2 interaction (UniProt P0DTC2+Q9BYF1). Nature of the data set: Spike protein–ACE2 interaction ELISA assay. The note with it: doses 0, 50, 100 μg/ml (method b11 says μM), Figure 1A. In kind it is binding, SARS-CoV-2; human. (In general: An ELISA detects its analyte on a solid surface through an enzyme-linked reagent.)
The test system of data set [9] is SARS-CoV-2 wild-type Spike Vpps. The data set can be described thus: microbe, parasite or virus in culture. The settings on record: Severe acute respiratory syndrome coronavirus 2, VeroE6/TMPRSS2, read-out: EC50 (inhibition of SARS-CoV-2 Vpp infection by 50%).

Like-named read-outs stand apart in the source and are kept apart here.

T2 sequence (O15393 whole entry): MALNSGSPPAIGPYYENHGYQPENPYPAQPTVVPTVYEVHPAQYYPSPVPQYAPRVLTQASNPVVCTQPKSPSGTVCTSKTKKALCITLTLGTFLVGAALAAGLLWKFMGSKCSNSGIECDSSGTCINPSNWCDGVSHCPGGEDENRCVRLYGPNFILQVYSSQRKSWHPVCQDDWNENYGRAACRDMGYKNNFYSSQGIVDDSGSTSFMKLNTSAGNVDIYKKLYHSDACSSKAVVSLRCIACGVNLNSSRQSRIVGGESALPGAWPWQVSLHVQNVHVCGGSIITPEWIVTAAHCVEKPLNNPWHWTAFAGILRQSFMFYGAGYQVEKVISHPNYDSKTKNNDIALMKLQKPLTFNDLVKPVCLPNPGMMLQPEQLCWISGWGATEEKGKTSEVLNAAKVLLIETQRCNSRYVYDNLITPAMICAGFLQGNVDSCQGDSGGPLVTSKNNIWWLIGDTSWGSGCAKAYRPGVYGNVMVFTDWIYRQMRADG

Consider tannic acid [reference compound], for which, in data set [1], the “EC50 (inhibition of SARS-CoV-2 Vpp infection by 50%)” value was determined as 6.91±0.63.

`Oc1cc(O)c2c(c1)O[C@H](c1ccc(O)c(O)c1)[C@H](O)[C@H]2c1c(O)cc(O)c2c1O[C@H](c1ccc(O)c(O)c1)[C@H](O)C2` [PB2, procyanidin B2]: the IC50 (usually the midpoint of a concentration-inhibition curve) in the data set on Mpro of SARS-CoV-2 is 75.3 ± 1.29 µM.

For `O=C1O[C@H]2[C@@H]3OC(=O)c4cc(O)c(O)c(O)c4-c4c(O)c(O)c5oc(=O)c6c(c(O)c(O)c7oc(=O)c4c5c76)-c4c(cc(O)c(O)c4O)C(=O)OC[C@H]3OC(O)[C@@H]2OC(=O)c2cc(O)c(O)c(O)c2-c2c1cc(O)c(O)c2O` (mixture of isomers) [Punicalagin, punicalagin], the EC50 (in general, the concentration giving half of the maximal effect) in data set [2] worked out at 3.7 ± 2.24 µg/mL; in data set [3], 4.65 ± 0.47 µg/mL; in [5] it was 5.47 ± 1.27 µg/mL; in [9], 5.8 ± 1.74 µg/mL. Besides, the “inhibition of Mpro enzymatic activity” value against SARS-CoV-2 Mpro was “even stronger inhibitory activity on M^pro than tannic acid and OPCs”. The midpoint of inhibition on human TMPRSS2, the IC50, lay at 31.9 µM. Moreover, the “inhibitory activity on TMPRSS2” value on human TMPRSS2 (Figure 1C, in words) is “only moderate inhibitory activity”. Further, the CC50 at 24 h in data set [4] was found to be 84.7 ± 5.55 µg/mL; in data set [6], 88.4 ± 6.76 µg/mL; in [7], 606 ± 61.1 µg/mL. In [1], the “SI (ratio of CC50 to EC50)” value is listed as 15.49. Further, the “inhibitory activity against the Spike protein–ACE2 interaction” value in data set [8] is given as “highest inhibitory activity”.
